# Reference: US5536723A, “S-nitroso derivatives of hydrazinoacetic acids, 1-[(acylthio and (mercapto)-1-oxoalkyl]-1,2,34-Tetrahydroquinoline-2-carboxylic acids and alanyl prolines and isoquinolines” (Brigham & Women's Hospital, priority 1994, dated 1996)
# Entries after “also recorded” stand apart in the source; their conditions may differ. Where two headings read alike, the source gives them in different places.
# Assays:
# [1] = decay of the S-nitroso bond in plasma (PPP); assay type: in vitro ADME; details: room temperature
# Procedure: The half-life of the S-nitroso bond of S-nitrosocaptopril in physiologic buffer and in plasma was determined by incubating purified S-nitrosocaptopril in aerated PSS or in PPP, the results of which are shown in FIG. 1.
# [2] = system: bovine coronary artery; test: relaxation of isolated bovine coronary artery rings contracted with potassium chloride
# Description: FIG. 5 depicts a graph showing the relaxation to sodium nitroprusside in the bovine coronary artery in the presence (o; n=7) or absence (; n:12) of a subthreshhold dose of S-nitrosocaptopril. The data are expressed as a percentage of the initial tension generated by potassium chloride (4×10^-2 M; coronary arteries) and are shown as mean ±SEM in each group.
# (§1) Blood Vessel Preparation. Bovine coronary or femoral arteries were obtained from an abattoir immediately after sacrifice of two- to four-week-old calves. Immediately after removal, the vessel was placed in ice-cold physiologic salt solution (PSS) containing 118.3 mM NaCl, 4.7 mM KCl, 2.5 mM CaCl2, 1.2 mM MgSO4, 1.2 mM KH2 PO4, 25.0 mM NaHCO3, 11.1 mM glucose, and 0.026 mM calcium disodium (ethylenedinitrilo)-tetraacetate. The vessels were then cleaned of adventitial tissue and cut into rings of approximately 5 mm lengths. When called for by the protocol, endothelium was removed from a ring by gently rubbing the luminal surface with a watchmaker's forceps. Vascular rings with intact endothelium were then suspended in organ chambers containing 25 ml of PSS at 37° aerated with 95% O2 -5% CO2. The rings were connected to force transducers (Grass FT03C, Quincy, Mass.) and changes in isometric force recorded continuously (Grass Polygraph Model 79B) over a period of 90 minutes. The optimal length-tension relationship was determined for each ring by observing the response to 10^-6 M norepinephrine after increments in tension of 0.5 gm. The functional integrity of the endothelium was assessed by contracting the vessel with 10^-6 M norepinephrine and then observing the response to 3×10^-7 M acetylcholine chloride.
# Thus, to study vasodilating agents in this tissue the vessels were first contracted with potassium chloride (40 mM). Relaxations are expressed as a percent of the concentration to 40 mM potassium chloride.
# Relaxations to S-nitrosocaptopril were inhibited by the antagonist of soluble guanylate cyclase, methylene blue (FIG. 4). Sodium nitroprusside induced dose-dependent relaxations of contractions to potassium chloride. The relaxation to sodium nitroprusside was inhibited by subthreshold doses of S-nitrosocaptopril (FIG. 5).
# [3] = system: bovine femoral artery; test: relaxation of isolated bovine femoral artery rings contracted with norepinephrine; details: for IC50: Bos taurus
# Procedure: FIG. 2 depicts a graph showing the effect of S-nitrosocaptopril on the contraction of bovine femoral arteries to norepinephrine.
# as §1
# Vascular ring segments with intact endothelium were […] contracted with a concentration of norepinephrine inducing a half-maximal response. After a stable contraction had been achieved, the tissue was exposed to increasing concentrations of S-nitrosocaptopril in cumulative half-log increments. […] The apparent IC50 is approximately 1 μM.
# [4] = system: platelets; test: platelet aggregation in PRP induced by ADP; assay type: cell-based, human; details: Homo sapiens, Platelet, 11 μM ADP
# Procedure: FIG. 7 depicts a graph showing the effect of S-nitrosocaptopril on platelet aggregation. Platelets in PRP were incubated with S-nitrosocaptopril over a range of concentrations for three minutes, after which ADP was added to a final concentration of 11 uM. The maximal rate of aggregation was measured and plotted as a percentage of that observed in the absence of S-nitrosocaptopril. Each point represents the mean ±SEM of five experiments each performed in duplicate.
# Platelets. Volunteers who had not ingested acetylsalicylic acid for at least ten days provided venous blood within one hour of use. […] Platelet counts were determined using a Coulter counter (Model ZM; Coulter Electronics, Hialeah, Fla.) and adjusted with platelet-poor plasma (PPP) to 1.5×10^8 platelets/ml prior to use.
# Platelet Aggregation. Platelet aggregation was monitored using a standard nephelometric technique (Born and Cross, J. Physiol (London) 168:178-195 (1963)) in which PRP was incubated at 37° with a final concentration of 11 μM ADP and stirred at 900 rpm in a Payton dual channel aggregometer (Payton Associates, Inc., Buffalo, N.Y.). Aggregation was quantitated by measuring either the maximal rate of change of light transmittance or the extent of change of light transmittance. […]
smiles,measurement,setting,value
C[C@H](CSN=O)C(=O)N1CCC[C@H]1C(=O)O [S-nitrosocaptopril],estimated half-life of the S-nitroso bond,[1],~2.5 h
same,IC50,"[2]; Bos taurus, contracted with potassium chloride (40 mM)",1.9 µM
same,Emax,"[2]; Bos taurus, contracted with potassium chloride (40 mM), read-out: maximal relaxation, coronary artery",97 ± 7%
same,"maximum inhibitory effect / relaxation, coronary artery compared with femoral artery (in words)",[2]; FIG. 3,significantly greater than those in the femoral artery (p<0.05); also recorded: significantly greater in the coronary artery than in the femoral artery
same,effect on relaxation to sodium nitroprusside (in words),"[2]; subthreshold doses of S-nitrosocaptopril, FIG. 5",inhibited
same,IC50,"[3]; compared with coronary artery, p<0.05, n=6, read-out: IC50 (relaxation, femoral artery)",5.6 µM
same,IC50,"[3]; norepinephrine-contracted, intact endothelium, FIG. 2, read-out: apparent IC50 (relaxation)",~1 µM
same,potency of vasodilation relative to S-nitroso-N-acetylpenicillamine (literature value in the bovine coronary artery),[3]; compared with Ignarro et al.,approximately one order of magnitude weaker
same,relaxation response (in words),"[3]; norepinephrine-contracted, FIG. 2",induced dose-dependant relaxation; also recorded: progressive relaxation was observed
same,IC50,[4],~80 µM
